# Patent publication US11667652B2, “MCL1 inhibitors” (Gilead Sciences, Inc., priority 2019, dated 2023)
# pIC50: −log10 of the molar value.
# Target: MCL1/Bim (Homo sapiens (Human), UniProt Q07820)
# Assay: MCL1/Bim Binding AlphaLISA Assay
# Conditions: recombinant human 6xHis-MCL1 (171-327), biotinylated Bim peptide (51-76)
# Experimental: MCL1/Bim Binding AlphaLISA Assay.
# Inhibition of the MCL1 and Bim interaction was measured in the following AlphaLISA assay.
# Recombinant human MCL1 protein (C-terminal 6×His Tagged MCL1 containing residues 171-327) was generated at Gilead Sciences, Inc. (Foster City, Calif.). A biotinylated peptide derived from human Bim (residues 51-76) was purchased from CPC Scientific (Sunnyvale, Calif.). (CPC 834113). AlphaLISA anti-6His- acceptor beads (AL128R), AlphaScreen Streptavidin donor beads (6760002B), and Proxiplate-384 Plus (6008289) were purchased from PerkinElmer.
# The AlphaLISA assay was performed in a 384-well Proxiplate in a total volume of […]. The reaction mixture contained 0.0625 nM 6×His-MCL1 (171-327), 0.0625 nM biotinylated-Bim peptide, 10 μg/mL AlphaLISA anti-6×His-AlphaLISA acceptor beads, 40 μg/mL AlphaScreen streptavidin donor beads, and serially diluted test compounds in the binding buffer (20 mM Hepes, pH 7.5 (Teknova H1035); 150 mM NaCl (Promega V4221); 0.002% Brij 35 (Thermo Scientific 20150); 1 mM Dithiothreitol (DTT) Solution (Affymetrix 70726); 0.01% BSA (BioLabs B9000S)). 1,000× test compounds were pre-spotted onto 384-well Proxiplate (Labcyte Echo) by Echo 555 Liquid Handler (Labcyte Inc., San Jose, Calif.) followed by incubation of 5 μL MCL1(171-327) for 1 hour. Then 5 μL Bim (51-76) was added and incubated for 2 hours. Five μL AlphaLISA anti-6His-AlphaLISA acceptor beads were then added for 1 hour followed by addition of 5 μL AlphaScreen streptavidin donor beads for 1 hour. The reaction plates were then read on an Envision multimode reader (PerkinElmer) using AlphaScreen settings. Percent inhibition was calculated as shown below: % Inhibition=100%*(Well−Neg)/(Pos−Neg) Neg: negative control, DMSO Pos: positive control, no MCL1 protein, no biotinylated-Bim peptide
# Chain of MCL1/Bim (Q07820 171-327): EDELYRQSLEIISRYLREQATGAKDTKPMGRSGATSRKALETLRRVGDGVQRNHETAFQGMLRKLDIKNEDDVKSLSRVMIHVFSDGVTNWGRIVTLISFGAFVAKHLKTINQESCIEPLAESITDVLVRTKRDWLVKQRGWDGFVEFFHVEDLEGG
row,Structure (SMILES),pIC50
1,COC[C@@H]1CC=C[C@@H](OC)[C@@H]2CC[C@H]2CN2C[C@@]3(CCCc4cc(Cl)ccc43)COc3ccc(cc32)C(=O)N=[S@](=O)(NC(=O)COC2CCOCC2)C1 [Example 44],9.19
2,COc1nn(C)cc1C(=O)N[S@@]1(=O)=NC(=O)c2ccc3c(c2)N(C[C@@H]2CC[C@H]2[C@@H](OC)C/C=C\[C@H](C)C1)C[C@@]1(CCCc2cc(Cl)ccc21)CO3 (mixture of isomers) [Example 128],9.25
3,CO[C@H]1/C=C/C[C@H](C)C[S@@](=O)(Nc2nc(O)nc3nn(C)cc23)=NC(=O)c2ccc3c(c2)N(C[C@@H]2CC[C@H]21)C[C@@]1(CCCc2cc(Cl)ccc21)CO3 [Example 11],9.74
4,COc1nn(C)cc1C(=O)N[S@@]1(=O)=NC(=O)c2ccc3c(c2)N(C[C@@H]2CC[C@H]2[C@@H](OC(=O)c2cn(C)nc2OC)CC[C@H](O)[C@H](C)[C@H]1C)C[C@@]1(CCCc2cc(Cl)ccc21)CO3 [Example 90],8.66
5,CO[C@H]1/C=C/CCC[S@@](=O)(NC(=O)c2cnn(C)c2)=NC(=O)c2ccc3c(c2)N(C[C@@H]2CC[C@H]21)C[C@]1(CO3)SCCc2cc(Cl)ccc21 [Example 182],10.22
6,COc1nn(C)cc1C(=O)N[S@@]1(=O)=NC(=O)c2ccc3c(c2)N(C[C@@H]2CC[C@H]2[C@H](OC)[C@H](O)[C@@H](O)C[C@H](C)C1)C[C@@]1(CCCc2cc(Cl)ccc21)CO3 [Example 126],9.89
7,CO[C@H]1/C=C/C[C@H](C)[C@@H](C)[S@@](=O)(NC(=O)c2cc3n(c2)CCOC3)=NC(=O)c2ccc3c(n2)N(C[C@@H]2CC[C@H]21)C[C@@]1(CCCc2cc(Cl)ccc21)CO3 [Example 202],9.70
8,CO[C@H]1/C=C/C[C@H](C)C[S@@](=O)(Nc2ncccn2)=NC(=O)c2ccc3c(c2)N(C[C@@H]2CC[C@H]21)C[C@@]1(CCCc2cc(Cl)ccc21)CO3 [Example 3],9.02
9,CO[C@H]1/C=C/C[C@H](C)C[S@@](=O)(NC(=O)NC2CC2)=NC(=O)c2ccc3c(c2)N(C[C@@H]2CC[C@H]21)C[C@]1(CO3)SCCc2cc(Cl)ccc21 [Example 177],10.05
10,CO[C@H]1CCC[C@H](C)C[S@@](=O)(Nc2ncnc3nn(C)cc23)=NC(=O)c2ccc3c(c2)N(C[C@@H]2CC[C@H]21)C[C@@]1(CCCc2cc(Cl)ccc21)CO3 [Example 28],9.92
11,COC[C@H]1C/C=C/[C@H](OC)[C@@H]2CC[C@H]2CN2C[C@@]3(CCCc4cc(Cl)ccc43)COc3ccc(cc32)C(=O)N=[S@@](=O)(NC(=O)COC2CCOCC2)C1 [Example 45],10.06
12,CO[C@H]1/C=C/[C@H](OC)[C@H](C)C[S@@](=O)(Nc2ncnc3nn(C)cc23)=NC(=O)c2ccc3c(c2)N(C[C@@H]2CC[C@H]21)C[C@@]1(CCCc2cc(Cl)ccc21)CO3 [Example 67],10.22
13,CO[C@H]1/C=C/C[C@H](C)C[S@@](=O)(Nc2ncc(C#N)cn2)=NC(=O)c2ccc3c(c2)N(C[C@@H]2CC[C@H]21)C[C@@]1(CCCc2cc(Cl)ccc21)CO3 [Example 2],8.72
14,COc1nn(C)cc1C(=O)N[S@@]1(=O)=NC(=O)c2ccc3c(c2)N(C[C@@H]2CC[C@H]2[C@@](C)(O)/C=C/C[C@H](C)C1)C[C@@]1(CCCc2cc(Cl)ccc21)CO3 [Example 94],10.08
15,CO[C@H]1/C=C/C[C@H](C)C[S@@](=O)(Nc2ncnc3nn(C)cc23)=NC(=O)c2ccc3c(n2)N(C[C@@H]2CC[C@H]21)C[C@@]1(CCCc2cc(Cl)ccc21)CO3 [Example 194],10.00
16,COc1nn(C)cc1C(=O)N[S@@]1(=O)=NC(=O)c2ccc3c(c2)N(C[C@@H]2CC[C@H]2[C@@H](O)C#CC[C@H](C)C1)C[C@@]1(CCCc2cc(Cl)ccc21)CO3 [Example 35],10.37
17,COc1nn(C)cc1C(=O)N[S@@]1(=O)=NC(=O)c2ccc3c(c2)N(C[C@@H]2CC[C@H]2[C@@H](OCC(O)CO)/C=C/C[C@H](C)C1)C[C@@]1(CCCc2cc(Cl)ccc21)CO3 (mixture of isomers) [Example 57],10.05
18,COc1nn(C)cc1C(=O)N[S@@]1(=O)=NC(=O)c2ccc3c(c2)N(C[C@@H]2CC[C@H]2[C@@H](OC)/C=C/[C@H](F)[C@H](C)C1)C[C@@]1(CCCc2cc(Cl)ccc21)CO3 [Example 127],10.23
19,CO[C@H]1/C=C/C[C@H](C)[C@@H](C)[S@@](=O)(NC(=O)c2cnn(C)c2)=NC(=O)c2ccc3c(c2)N(C[C@@H]2CC[C@H]21)C[C@]1(CO3)C[C@@H]2C[C@@H]2c2cc(Cl)ccc21 [Example 171],9.75
20,COc1nn(C)cc1C(=O)N[S@@]1(=O)=NC(=O)c2ccc3c(c2)N(C[C@@H]2CC[C@H]2[C@H](OC)C#CC[C@H](C)C1)C[C@@]1(CCCc2cc(Cl)ccc21)CO3 [Example 38],9.96
21,CO[C@H]1/C=C/C[C@H](C)C[S@@](=O)(Nc2nccc3nn(C)cc23)=NC(=O)c2ccc3c(c2)N(C[C@@H]2CC[C@H]21)C[C@@]1(CCCc2cc(Cl)ccc21)CO3 [Example 7],8.76
22,COc1nn(C)cc1C(=O)N[S@@]1(=O)=NC(=O)c2ccc3c(c2)N(C[C@@H]2CC[C@H]2[C@@H](OC(=O)c2cn(C)nc2OC)/C=C/[C@H](O)[C@H](C)[C@H]1C)C[C@@]1(CCCc2cc(Cl)ccc21)CO3 [Example 89],9.28
23,COc1nn(C)cc1C(=O)N[S@@]1(=O)=NC(=O)c2ccc3c(c2)N(C[C@@H]2CC[C@H]2[C@@H](OC)[C@H](O)[C@@H](O)C[C@H](C)C1)C[C@@]1(CCCc2cc(Cl)ccc21)CO3 [Example 125],10.29
24,CCCO[C@H]1/C=C/[C@H](OC)[C@@H]2CC[C@H]2CN2C[C@@]3(CCCc4cc(Cl)ccc43)COc3ccc(cc32)C(=O)N=[S@](=O)(NC(=O)c2cn(C)nc2OC)C[C@H]1C [Example 144],9.69
25,COc1nn(C)cc1C(=O)N[S@@]1(=O)=NC(=O)c2ccc3c(c2)N(C[C@@H]2CC[C@H]2[C@](O)(CC(=O)N2CC(N4CCOCC4)C2)/C=C/C[C@H](C)C1)C[C@@]1(CCCc2cc(Cl)ccc21)CO3 [Example 107],10.44
26,COCCn1cc2c(N[S@@]3(=O)=NC(=O)c4ccc5c(c4)N(C[C@@H]4CC[C@H]4[C@@H](OC)/C=C/C[C@H](C)C3)C[C@@]3(CCCc4cc(Cl)ccc43)CO5)ncnc2n1 [Example 14],9.02
27,CO[C@H]1/C=C/C[C@H](C)C[S@@](=O)(Nc2cccnn2)=NC(=O)c2ccc3c(c2)N(C[C@@H]2CC[C@H]21)C[C@@]1(CCCc2cc(Cl)ccc21)CO3 [Example 13],8.67
28,CCn1cc(C(=O)N[S@@]2(=O)=NC(=O)c3ccc4c(n3)N(C[C@@H]3CC[C@H]3[C@@H](OC)/C=C/C[C@H](C)[C@H]2C)C[C@@]2(CCCc3cc(Cl)ccc32)CO4)cn1 [Example 199],9.77
29,COc1nn(C)cc1C(=O)N[S@@]1(=O)=NC(=O)c2ccc3c(c2)N(C[C@@H]2CC[C@H]2[C@@H](OCCN2CCN(C)CC2)/C=C/C[C@H](C)C1)C[C@@]1(CCCc2cc(Cl)ccc21)CO3 [Example 59],10.12
